From ChEMBL document CHEMBL1137130, “Synthesis and structure-activity relationships of novel IKK-beta inhibitors. Part 3: Orally active anti-inflammatory agents” (Bioorg Med Chem Lett, 2004)

How the values were obtained:
[1] = target: T1, Inhibitor of nuclear factor kappa-B kinase subunit beta (Homo sapiens, UniProt O14920); assay: Inhibition of recombinant human I-kappa-B-kinase beta (IKK beta)
T1 sequence (O14920 whole entry): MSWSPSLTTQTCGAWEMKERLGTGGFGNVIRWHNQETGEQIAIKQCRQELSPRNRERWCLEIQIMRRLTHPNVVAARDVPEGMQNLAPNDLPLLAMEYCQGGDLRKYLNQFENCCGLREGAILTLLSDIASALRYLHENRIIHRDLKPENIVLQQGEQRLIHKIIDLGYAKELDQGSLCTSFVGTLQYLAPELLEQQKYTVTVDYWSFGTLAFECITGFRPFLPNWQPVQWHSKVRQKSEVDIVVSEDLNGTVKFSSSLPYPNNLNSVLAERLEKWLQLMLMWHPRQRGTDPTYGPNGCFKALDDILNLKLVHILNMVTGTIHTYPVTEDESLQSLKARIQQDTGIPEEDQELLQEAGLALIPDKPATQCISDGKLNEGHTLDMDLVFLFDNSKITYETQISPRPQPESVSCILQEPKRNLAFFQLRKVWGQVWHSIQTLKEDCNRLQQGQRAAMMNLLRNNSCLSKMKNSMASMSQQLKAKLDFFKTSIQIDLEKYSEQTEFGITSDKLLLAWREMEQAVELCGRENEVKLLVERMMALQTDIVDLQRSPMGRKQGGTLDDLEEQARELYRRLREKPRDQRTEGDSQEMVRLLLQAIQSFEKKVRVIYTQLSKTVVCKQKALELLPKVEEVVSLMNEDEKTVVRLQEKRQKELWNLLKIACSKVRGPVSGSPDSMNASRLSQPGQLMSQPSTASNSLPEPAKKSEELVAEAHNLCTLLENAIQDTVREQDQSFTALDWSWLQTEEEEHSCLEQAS

A549 = assay: TNF-alpha-induced RANTES production in A549 cells using ELISA assay; format: functional, cell-based; conditions: Homo sapiens

SMILES | IC50 [1] [nM] | IC50 (A549) [nM]
CC(C)Oc1cccc(O)c1-c1cc(C2CCCNC2)c(C#N)c(N)n1 (configuration not stated) | 81 | 800
CCCOc1cccc(O)c1-c1cc(C2CCCNC2)c(C#N)c(N)n1 (configuration not stated) | 5 | 80
CC(C)COc1cccc(O)c1-c1cc(C2CCNCC2)c(C#N)c(N)n1 | 15 | 80
CC(C)COc1cccc(O)c1-c1cc(C2CCCNC2)c(C#N)c(N)n1 (configuration not stated) | 5 | 150
CCCCCCCOc1cccc(O)c1-c1cc(C2CCCNC2)c(C#N)c(N)n1 (configuration not stated) | 14 | 1500
CCOc1cccc(O)c1-c1cc(C2CCCNC2)c(C#N)c(N)n1 (configuration not stated) | 14 | 150
N#Cc1c(C2CCCNC2)cc(-c2c(O)cccc2O)nc1N (configuration not stated) | 15 | 200
N#Cc1c(C2CCCNC2)cc(-c2c(O)cccc2OCC2CC2)nc1N (configuration not stated) | 3 | 80
N#Cc1c(C2CCCNC2)cc(-c2c(N)cccc2O)nc1N (configuration not stated) | 7800 | > 10000
Cc1cccc(-c2cc(C3CCCNC3)c(C#N)c(N)n2)c1O (configuration not stated) | 1300 | 7000
CCCCCOc1cccc(O)c1-c1cc(C2CCCNC2)c(C#N)c(N)n1 (configuration not stated) | 6 | 300
COc1cccc(-c2cc(C3CCCNC3)c(C#N)c(N)n2)c1O (configuration not stated) | 20000 | 
N#Cc1c(C2CCNCC2)cc(-c2c(O)cccc2O)nc1N | 270 | 500
CCOc1cccc(O)c1-c1cc(C2CCNCC2)c(C#N)c(N)n1 | 120 | 200
